Laboratory results reported in US20100099756A1, “USES OF INCENSOLE, INCENSOLE ACETATE AND DERIVATIVES THEREOF” (YISSUM RESEARCH DEVELOPMENT COMPANY OF THE HEBREW …, priority 2006, published 2010).

Assays:
closed head injury = assay: Object recognition test after CHI; format: in vivo, mice
Protocol: This effect was sustained from 24 h to 21 days following injury as determined by the Mann-Whitney test (n=9-10 per group; * p<0.01; **p<0.001, as compared to vehicle treated, at the same day). (B) Mice were subjected to the object recognition test (Example 6) 3, 7, 14 and 21 days after CHI. The absolute time spent exploring each of the two objects was recorded and the % time calculated. At baseline (bl), when presented with two identical objects, exploration time of each object was about 50% in both groups. In the test (T) situation, after one of the objects was replaced by a novel one the % time spent exploring the new object was calculated.
Memory function was assessed by ORT (Object Recognition Test) and the results are depicted in FIG. 5B. […] Both groups spent equal time at the two objects (˜50% of total exploration time) at the baseline measurements, at all times post CHI. […] At 21 days, it appears that the vehicle-treated mice regained their ability, and exploration time reached a similar level to that of the IA-treated mice.

TNF-α and IL-1β mRNA = assay: IL-1β and TNFα mRNA expression after CHI (real-time PCR); format: in vivo, mice; conditions: 3 hours after CHI, 50 mg/kg, relative to β-actin, P<0.05
Protocol: IL-1β and TNFα mRNA levels were quantified 3 hours post-injury by real time polymarerase chain reaction. β-actin was used as endogenous control. *p<0.05 vs. vehicle, as determined by student's t-tests.
The mRNA levels of these cytokines were quantified at 3 hours after CHI using real-time PCR.

TRPV1 = TRPV1 (Homo sapiens, UniProt Q8NER1); assay: Calcium imaging of TRPV1-transfected HEK293 cells; format: cell-based; conditions: IA 100 μM, compared to vehicle
Sequence of TRPV1 (Q8NER1 whole entry): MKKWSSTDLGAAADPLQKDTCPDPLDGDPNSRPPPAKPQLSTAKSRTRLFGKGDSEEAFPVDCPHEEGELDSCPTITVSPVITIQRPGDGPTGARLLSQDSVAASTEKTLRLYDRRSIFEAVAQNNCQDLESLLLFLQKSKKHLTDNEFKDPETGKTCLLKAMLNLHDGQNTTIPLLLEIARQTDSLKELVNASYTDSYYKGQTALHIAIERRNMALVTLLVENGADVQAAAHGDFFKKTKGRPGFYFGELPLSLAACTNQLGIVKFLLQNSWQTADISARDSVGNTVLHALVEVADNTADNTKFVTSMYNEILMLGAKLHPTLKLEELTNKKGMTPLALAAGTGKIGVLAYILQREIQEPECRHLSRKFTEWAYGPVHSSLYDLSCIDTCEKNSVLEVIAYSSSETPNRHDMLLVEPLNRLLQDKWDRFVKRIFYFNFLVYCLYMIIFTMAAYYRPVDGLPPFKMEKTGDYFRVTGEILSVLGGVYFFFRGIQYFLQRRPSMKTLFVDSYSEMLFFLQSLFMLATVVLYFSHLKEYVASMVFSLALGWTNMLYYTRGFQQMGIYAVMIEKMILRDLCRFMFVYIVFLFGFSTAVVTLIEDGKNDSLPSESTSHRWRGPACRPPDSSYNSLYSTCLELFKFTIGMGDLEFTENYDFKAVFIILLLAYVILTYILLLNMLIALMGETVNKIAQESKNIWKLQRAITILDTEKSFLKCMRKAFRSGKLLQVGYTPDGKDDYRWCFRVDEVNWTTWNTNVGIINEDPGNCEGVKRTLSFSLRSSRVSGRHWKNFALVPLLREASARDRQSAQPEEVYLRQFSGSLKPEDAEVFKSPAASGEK
Protocol: All error bars indicate SEM; p values in all subfigures but c represent analysis with one-way ANOVA Bonferroni's post hoc.
Human HEK 293 cells stably expressing TRPV1 were a kind gift from Merck Research Laboratories (Whitehouse Station, N.J.). Cells were cultured in minimal essential medium, Eagle, modified with non-essential amino acids, 1 mM sodium pyruvate, 2 mM L-glutamine and 1.5 g/L sodium bicarbonate (ATCC, Mabassas, Va.), containing 1% Penicillin-streptomycin, and 10% foetal bovine serum. Cells were passaged three times a week using Trypsin-EDTA 1× (Invitrogen, Carlsbad, Calif.) and grown under 5% CO2 at 37° C.
Calcium imaging of HEK 293 cells. TRPV1, TRPV3, and TRPV4 expressing HEK293 cells were plated 24-48 h before imaging in 96 well plates, loaded with 3 μM Fura-2 AM and imaged as previously described [O'dell, D. K., Rimmerman, N., Pickens, S. R. & Walker J. M. Fatty acyl amides of endogenous tetrahydroisoquinolines are active at the recombinant human TRPV1 receptor. […] Med. Chem. 15, 6164-6169 (2007)].

TRPV4 = assay: Whole-cell voltage-clamp, TRPV4(+) cells; format: cell-based; conditions: IA 200 μM
Protocol: TRPV3(+) response to IA is shown for reference. *, p<0.001. Error bars represent SEM, n=4-5.
Electrophysiological recording. Currents were recorded using whole-cell voltage-clamp. Pipettes were pulled from microcapillary glass (A-M Systems). A coverslip containing cells was transferred to a 300 μL chamber that was constantly perfused (1-2 mL/min) with external solution. Voltage protocols were generated and data were digitized and recorded using Pulse (HEKA Elektronik) software in conjunction with an Axopatch 200A amplifier (Axon Instruments), and the data analyzed using an in-house Visual Basic (Microsoft) analysis program.
The pipette solution contained (in mM): 121.5 Kgluconate, 10 HEPES, 17 KCl, 9 NaCl, 1 MgCl2, 0.2 EGTA, 2 MgATP, and 0.5 NaATP, pH 7.2. The external solution contained (in mM): 120 NaCl, 5 KCl, 1 MgCl2, 2 CaCl2, 10 Glucose and 20 HEPES, pH 7.4 with NaOH. The measured charge (pC) was defined as the charge elicited between -85 and -45 mV by a ramping voltage stimulus (−85 mV to +35 mV, 0.54 mV/msec; holding potential -55 mV). Currents were sampled at 5 kHz. Experimental and control cells were alternated whenever possible. Control values were obtained from adjacent cells with no detectable YFP fluorescence, presumed to be non-TRPV3-expressing.

CC(=O)OC1CC/C(C)=C/CC/C(C)=C/CC2(C(C)C)CCC1(C)O2 (stereo not shown) [IA, incensole acetate]
time exploring the new object, persistence of the effect (closed head injury; 7 and 14 days post injury): sustained for 7 and 14 days
time exploring the new object (closed head injury; 3 days post injury, 50 mg/kg, P=0.01): significantly longer times exploring the new object
memory function of naïve, non-injured mice (closed head injury; non-injured mice, data not shown): not affected
IL-1β mRNA expression (TNF-α and IL-1β mRNA): significantly inhibited mRNA expression
TNF-α mRNA expression (TNF-α and IL-1β mRNA): significantly inhibited mRNA expression
calcium influx in TRPV1-transfected HEK293 cells (TRPV1): very small influx of calcium
current activation in TRPV4(+) cells (TRPV4): does not activate currents
